Source: PubChem BioAssay AID248 (DTP/NCI, 2004)
“And” between values parts separate entries of the source, which are not always exact repeats. Equal entries are not always repeated. Inconclusive results and toxic doses are left out. Rule as the data show it: active = T/C of 150% or more; inactive = T/C below 125%.

Tested on: L1210 leukemia ip in BDF1 mice, survival T/C
Experiment: NCI In Vivo Anticancer Drug Screen. Data for tumor model L1210 Leukemia (intraperitoneal) in B6D2F1 (BDF1) mice
Conditions: endpoint: mean survival time, higher = longer survival
How it was run: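 Mice bearing the transplanted tumor received compound or vehicle. Survival of the treated group was divided by that of the vehicle-treated control group to give the ratio.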

[1] = dose: 100.0 mg/kg/injection, schedule: Q01DX009 (ip), vehicle: Klucel (hydroxypropylcellulose) (HPC)
[2] = dose: 200.0 mg/kg/injection, schedule: Q01DX009 (ip), vehicle: Klucel (hydroxypropylcellulose) (HPC)
[3] = dose: 100.0 mg/kg/injection, schedule: Q04DX002 (ip), vehicle: Klucel (hydroxypropylcellulose) (HPC)

Measured: T/C

CCN1C=C/C(=C\C=C/c2cc[n+](CC)c3ccccc23)c2ccccc21
inactive: dose: 0.05 mg/kg/injection, schedule: Q01DX Z (ip), vehicle: methylcellulose (MC) 96 % of control | dose: 0.06 mg/kg/injection, schedule: Q01DX Z (ip), vehicle: methylcellulose (MC) 106 % of control and 121 % of control | dose: 0.08 mg/kg/injection, schedule: Q01DX Z (ip), vehicle: methylcellulose (MC) 104 % of control | dose: 0.1 mg/kg/injection, schedule: Q01DX Z (ip), vehicle: methylcellulose (MC) 107 % of control | dose: 0.11 mg/kg/injection, schedule: Q01DX Z (ip), vehicle: methylcellulose (MC) 121 % of control | dose: 0.15 mg/kg/injection, schedule: Q01DX Z (ip), vehicle: methylcellulose (MC) 119 % of control | dose: 0.3 mg/kg/injection, schedule: Q01DX Z (ip), vehicle: methylcellulose (MC) 113 % of control and 120 % of control and 121 % of control | dose: 0.33 mg/kg/injection, schedule: Q01DX009 (ip), vehicle: saline with Tween-80 118 % of control | dose: 0.33 mg/kg/injection, schedule: Q03HX024 (ip), vehicle: saline with Tween-80 109 % of control | dose: 0.4 mg/kg/injection, schedule: Q01DX Z (ip), vehicle: methylcellulose (MC) 112 % of control | dose: 0.44 mg/kg/injection, schedule: Q01DX009 (ip), vehicle: saline with Tween-80 121 % of control | dose: 0.48 mg/kg/injection, schedule: Q01DX009 (ip), vehicle: saline with Tween-80 112 % of control | dose: 0.5 mg/kg/injection, schedule: Q01DX009 (ip), vehicle: saline 101 % of control | dose: 0.5 mg/kg/injection, schedule: Q04DX003 (ip), vehicle: saline sonified 107 % of control | dose: 0.67 mg/kg/injection, schedule: Q01DX001 (ip), vehicle: saline with Tween-80 105 % of control | dose: 0.67 mg/kg/injection, schedule: Q04DX003 (ip), vehicle: saline with Tween-80 105 % of control | dose: 0.7 mg/kg/injection, schedule: Q01DX Z (ip), vehicle: methylcellulose (MC) 96 % of control | dose: 0.74 mg/kg/injection, schedule: Q01DX009 (ip), vehicle: saline with Tween-80 114 % of control and 118 % of control | dose: 1.0 mg/kg/injection, schedule: Q01DX001 (ip), vehicle: saline with Tween-80 105 % of control | dose: 1.0 mg/kg/injection, schedule: Q01DX009 (ip), vehicle: saline 107 % of control | dose: 1.0 mg/kg/injection, schedule: Q01DX Z (ip), vehicle: methylcellulose (MC) 100 % of control | dose: 1.0 mg/kg/injection, schedule: Q04DX003 (ip), vehicle: saline sonified 110 % of control | dose: 1.1 mg/kg/injection, schedule: Q01DX009 (ip), vehicle: saline with Tween-80 105 % of control | dose: 1.5 mg/kg/injection, schedule: Q01DX001 (ip), vehicle: saline with Tween-80 112 % of control | dose: 1.5 mg/kg/injection, schedule: Q01DX Z (ip), vehicle: methylcellulose (MC) 108 % of control | dose: 1.5 mg/kg/injection, schedule: Q04DX003 (ip), vehicle: saline with Tween-80 113 % of control | dose: 2.0 mg/kg/injection, schedule: Q04DX003 (ip), vehicle: saline sonified 118 % of control | dose: 2.2 mg/kg/injection, schedule: Q01DX001 (ip), vehicle: saline with Tween-80 110 % of control | dose: 2.2 mg/kg/injection, schedule: Q04DX003 (ip), vehicle: saline with Tween-80 98 % of control | dose: 3.3 mg/kg/injection, schedule: Q01DX001 (ip), vehicle: saline with Tween-80 100 % of control and 88 % of control | dose: 7.4 mg/kg/injection, schedule: Q01DX001 (ip), vehicle: saline with Tween-80 105 % of control | dose: 67.0 micrograms/kg/injection, schedule: Q03HX024 (ip), vehicle: saline with Tween-80 102 % of control | dose: 100.0 micrograms/kg/injection, schedule: Q03HX024 (ip), vehicle: saline with Tween-80 101 % of control | dose: 150.0 micrograms/kg/injection, schedule: Q03HX024 (ip), vehicle: saline with Tween-80 104 % of control | dose: 220.0 micrograms/kg/injection, schedule: Q03HX024 (ip), vehicle: saline with Tween-80 97 % of control | dose: 330.0 micrograms/kg/injection, schedule: Q03HX024 (ip), vehicle: saline with Tween-80 102 % of control

CCCCCCCCC(=O)N1CC(C)OC(C)C1 (configuration not stated)
inactive: [1] 120 % of control | dose: 100.0 mg/kg/injection, schedule: Q04DX003 (ip), vehicle: other 118 % of control | [2] 87 % of control | dose: 200.0 mg/kg/injection, schedule: Q04DX003 (ip), vehicle: other 109 % of control | dose: 400.0 mg/kg/injection, schedule: Q01DX009 (ip), vehicle: Klucel (hydroxypropylcellulose) (HPC) 94 % of control | dose: 400.0 mg/kg/injection, schedule: Q04DX003 (ip), vehicle: other 104 % of control

CC(CC(C#CC(CC(C)CC(C)(C)C)N(C)C)N(C)C)CC(C)(C)C (configuration not stated)
inactive: [1] 96 % of control | [3] 111 % of control | [2] 93 % of control | dose: 200.0 mg/kg/injection, schedule: Q04DX002 (ip), vehicle: Klucel (hydroxypropylcellulose) (HPC) 93 % of control | dose: 400.0 mg/kg/injection, schedule: Q04DX002 (ip), vehicle: Klucel (hydroxypropylcellulose) (HPC) 90 % of control

CC(=O)CCC(C)N=Cc1ccc(N(C)C)cc1 (configuration not stated)
inactive: dose: 100.0 mg/kg/injection, schedule: Q04DX003 (ip), vehicle: saline 92 % of control | dose: 200.0 mg/kg/injection, schedule: Q04DX003 (ip), vehicle: saline 91 % of control | dose: 400.0 mg/kg/injection, schedule: Q04DX003 (ip), vehicle: saline 89 % of control

CCOP(=O)(OCC)Oc1c(Cl)c(Cl)c(OC(=O)Nc2cc(Cl)ccc2Cl)c(Cl)c1Cl
inactive: dose: 25.0 mg/kg/injection, schedule: Q04DX002 (ip), vehicle: saline with Tween-80 90 % of control | dose: 50.0 mg/kg/injection, schedule: Q04DX002 (ip), vehicle: saline with Tween-80 97 % of control | dose: 100.0 mg/kg/injection, schedule: Q04DX002 (ip), vehicle: saline with Tween-80 94 % of control

NNC(=O)CNc1ccc(Cl)cc1
inactive: dose: 25.0 mg/kg/injection, schedule: Q04DX002 (ip), vehicle: Klucel (hydroxypropylcellulose) (HPC) 98 % of control | dose: 50.0 mg/kg/injection, schedule: Q04DX002 (ip), vehicle: Klucel (hydroxypropylcellulose) (HPC) 106 % of control | [3] 98 % of control and 123 % of control

CC(C)N(CCSc1ncnc2nc[nH]c12)C(C)C
inactive: dose: 75.0 mg/kg/injection, schedule: Q01DX001 (ip), vehicle: saline 96 % of control

C=C1C2C3CCC(C3)C2C(O)C2C3CCC(C3)C12 (configuration not stated)
inactive: dose: 50.0 mg/kg/injection, schedule: Q01DX009 (ip), vehicle: saline with Tween-80 96 % of control | dose: 100.0 mg/kg/injection, schedule: Q01DX009 (ip), vehicle: saline with Tween-80 93 % of control | dose: 200.0 mg/kg/injection, schedule: Q01DX009 (ip), vehicle: saline with Tween-80 93 % of control

Cc1cc(=O)c2cccc(C)c2[nH]1
inactive: [1] 95 % of control | dose: 100.0 mg/kg/injection, schedule: Q04DX003 (ip), vehicle: Klucel (hydroxypropylcellulose) (HPC) 95 % of control | [2] 90 % of control | dose: 200.0 mg/kg/injection, schedule: Q04DX003 (ip), vehicle: Klucel (hydroxypropylcellulose) (HPC) 98 % of control | dose: 400.0 mg/kg/injection, schedule: Q04DX003 (ip), vehicle: Klucel (hydroxypropylcellulose) (HPC) 98 % of control

CNNC(=O)C(O)C(C)(C)CO (configuration not stated)
inactive: dose: 100.0 mg/kg/injection, schedule: Q01DX001 (ip), vehicle: saline 100 % of control | dose: 200.0 mg/kg/injection, schedule: Q01DX001 (ip), vehicle: saline 100 % of control | dose: 400.0 mg/kg/injection, schedule: Q01DX001 (ip), vehicle: saline 102 % of control

O=C1c2ccccc2CCC12OC2c1ccccc1[N+](=O)[O-] (configuration not stated)
inactive: dose: 100.0 mg/kg/injection, schedule: Q01DX009 (ip), vehicle: saline 88 % of control | dose: 100.0 mg/kg/injection, schedule: Q04DX003 (ip), vehicle: acetone 98 % of control | dose: 200.0 mg/kg/injection, schedule: Q01DX009 (ip), vehicle: saline 89 % of control | dose: 200.0 mg/kg/injection, schedule: Q04DX003 (ip), vehicle: acetone 93 % of control | dose: 400.0 mg/kg/injection, schedule: Q01DX009 (ip), vehicle: saline 98 % of control | dose: 400.0 mg/kg/injection, schedule: Q04DX003 (ip), vehicle: acetone 109 % of control

CC(=O)NC1CONC1=O (configuration not stated)
inactive: dose: 100.0 mg/kg/injection, schedule: Q04DX003 (ip), vehicle: saline with Tween-80 98 % of control | dose: 200.0 mg/kg/injection, schedule: Q04DX003 (ip), vehicle: saline with Tween-80 98 % of control | dose: 400.0 mg/kg/injection, schedule: Q04DX003 (ip), vehicle: saline with Tween-80 94 % of control
